Data taken from patent US5684034A, “1H-indole-3-acetamide sPLA2 inhibitors” (Eli Lilly and Company, priority 1995, dated 1997).

Molecular target: T1, recombinant human secreted phospholipase A2 (Homo sapiens, UniProt P14555)
T1 sequence (P14555 21-144): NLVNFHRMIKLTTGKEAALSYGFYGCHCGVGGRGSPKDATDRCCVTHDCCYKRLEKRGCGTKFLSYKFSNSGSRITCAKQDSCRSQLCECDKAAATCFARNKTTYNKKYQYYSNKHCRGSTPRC
Assay: Human secreted phospholipase A2 inhibition test (chromogenic assay, diheptanoyl thio-PC substrate)
Type: biochemical
Conditions: Inhibition of human secreted PLA2 IC50 ± mean deviation (3-5 tests), pH 7.5, 40° C., 30 minutes, 405 nm
Method: The following chromogenic assay procedure was used to identify and evaluate inhibitors of recombinant human secreted phospholipase A2. The assay described herein has been adapted for high volume screening using 96 well microtiter plates.
A measured volume of racetic dipheptanoyl thio PC supplied in chloroform at a concentration of 100 mg/ml is taken to dryness and redissolved in 10 millimolar TRITON X-100™ nonionic detergent aqueous solution. Reaction Buffer is added to the solution, then DTNB to give the Reaction Mixture.
The reaction mixture thus obtained contains 1 mM diheptanoly thio-PC substrate, 0.29 mm Triton X-100™ detergent, and 0.12 mm DTMB in a buffered aqueous solution at pH 7.5.
1. Add 0.2 ml reaction mixture to all wells;
2. Add 10 ul test compound (or solvent blank) to appropriate wells, mix 20 seconds:
3. Add 50 nanograms of sPLA2 (10 microliters) to appropriate wells;
4. incubate plate at 40° C. for 30 minutes;
All compounds were tested in triplicate. […] Each sample was titrated in triplicate and result values were averaged for plotting and calculation of IC50 values. […] Each IC50 value was determined three times.

Row | IC50 | Structure (SMILES)
1 | 840 ± 380 nM | Cc1c(CC(N)=O)c2cc(O)ccc2n1Cc1ccccc1 [Example 2, 5-Hydroxy-2-methyl-1-(phenylmethyl)-1H-indole-3-acetamide]
2 | 430 ± 230 nM | Cc1c(CC(N)=O)c2cc(OCCC(=O)O)ccc2n1Cc1ccccc1 [Example 21, 3-[[3-(2-Amino-2-oxoethyl)-2-methyl-1-(phenylmethyl)-1H-indol-5-yl]oxy]-propanic acid]
3 | 60 ± 20 nM | NC(=O)Cc1c(Cl)n(Cc2ccccc2)c2ccc(OCCCC(=O)O)cc12 [Example 24, 4-[[3-(2-Amino-2-oxoethyl)-2-chloro-1-(phenylmethyl)-1H-indole-5-yl]oxy]butanoic acid]
4 | 3300 ± 100 nM | Cc1c(CC(N)=O)c2cc(NCCC(=O)O)ccc2n1Cc1ccccc1 [Example 27, 3-[[3-(2-Amino-2-oxoethyl)-2-methyl-1-(phenylmethyl)-1H-indol-5-yl]amino]propanoic acid]
5 | 300 ± 120 nM | CCOC(=O)CCCCOc1ccc2c(CC(N)=O)c(C)n(Cc3ccccc3)c2c1 [Example 33, 5-[[3-(2-Amino-2-oxoethyl)-2-methyl-1-(phenylmethyl)-1H-indol-6-yl]oxy]pentanoic acid ethyl ester]
6 | 7460 ± 1660 nM | Cc1c(CC(N)=O)c2c(O)cccc2n1Cc1ccccc1 [Example 36, 4-Hydroxy-2-methyl-1-(phenylmethyl)-1H-indole-3-acetamide]
7 | 160 ± 190 nM | CSc1c(CC(N)=O)c2cc(OCCCC(=O)O)ccc2n1Cc1ccccc1 [Example 46, 4-[[3-(2-Amino-2-oxoethyl)-2-(methylthio)-1-(phenylmethyl)-1H-indol-5-yl]oxy]butanoic acid]

The remaining lines, values behind:

Row | Structure (SMILES) | IC50
8 | Cc1c(CC(N)=O)c2cc(OCC(=O)O)ccc2n1Cc1ccccc1 [Example 19, 2-[[3-(2-Amino-2-oxoethyl)-2-methyl-1-(phenylmethyl)-1H-indol-5-yl]oxy]acetic acid] | 1160 ± 410 nM
9 | CSc1c(CC(N)=O)c2cc(OCCCC(N)=O)ccc2n1Cc1ccccc1 [Example 47, 5-(4-Amino-4-oxobutoxy)-2-(methylthio)-1-(phenylmethyl)-1H-indole-3-acetamide] | 90 ± 60 nM

Same assay, conditions: pH 7.5, 40° C., 30 minutes, 405 nm; read-out: Inhibition of human secreted PLA2 IC50 ± mean deviation (3-5 tests)

Row | IC50 | Structure (SMILES)
10 | 1330 ± 450 nM | Cc1ccc2c(CC(N)=O)c(C)n(Cc3ccccc3)c2c1 [Example 1, 2,6-Dimethyl-1-(phenylmethyl)-1H-indole-3-acetamide]
11 | 5450 ± 1620 nM | COc1ccc2c(c1)c(CC(N)=O)c(C)n2Cc1ccc(OCc2ccccc2)cc1 [Example 7, 1-[(4-Benzyloxyphenyl)methyl]-5-methoxy-2-methyl-1H-indole-3-acetamide]
12 | 3340 ± 460 nM | COC(=O)CCNc1ccc2c(c1)c(CC(N)=O)c(C)n2Cc1ccccc1 [Example 25, 3-[[3-(2-Amino-2-oxoethyl)-2-methyl-1-(phenylmethyl)-1H-indol-5-yl]amino]propanoic acid methyl ester]
13 | 3610 ± 750 nM | Cc1c(CC(N)=O)c2ccc(O)cc2n1Cc1ccccc1 [Example 30, 6-Hydroxy-2-methyl-1-(phenylmethyl)-1H-indole-3-acetamide]
14 | 12200 ± 550 nM | Cc1c(CC(N)=O)c2ccc(OCCCC(=O)O)cc2n1Cc1ccccc1 [Example 32, 4-[[3-(2-Amino-2-oxoethyl)-2-methyl-1-(phenylmethyl)-1H-indol-6-yl]oxy]butanoic acid]
15 | 2360 ± 150 nM | COc1cccc2c1c(CC(N)=O)c(C)n2Cc1ccccc1 [Example 35, 4-Methoxy-2-methyl-1-(phenylmethyl)-1H-indole-3-acetamide]
16 | 230 ± 60 nM | COc1ccc2c(c1)c(CC(N)=O)c(Br)n2Cc1ccccc1 [Example 42, 2-Bromo-5-methoxy-1-(phenylmethyl)-1H-indole-3-acetamide]
17 | 770 ± 270 nM | CCCCCCCCn1c(C)c(CC(N)=O)c2cc(OCCCC(=O)O)ccc21 [Example 52]
18 | 680 nM | CCCCCCCCCCn1c(C)c(CC(N)=O)c2cc(OCCCC(=O)O)ccc21 [Example 53]
19 | 650 ± 150 nM | Cc1c(CC(N)=O)c2cc(OCCCC(=O)O)ccc2n1CC1CCCCC1 [Example 54]
20 | 340 ± 100 nM | CCc1c(CC(N)=O)c2cc(O)ccc2n1Cc1ccccc1 [Example 56, 2-Ethyl-5-hydroxy-1-(phenylmethyl)-1H-indole-3-acetamide]

The remaining lines, values behind:

Row | Structure (SMILES) | IC50
21 | COc1ccc2c(c1)c(CC(N)=O)cn2Cc1ccccc1 [Example 3, 5-Methoxy-1-(phenylmethyl)-1H-indole-3-acetamide] | 3700 ± 2820 nM
22 | COc1ccc2c(c1)c(CC(N)=O)c(C)n2Cc1c(Cl)cccc1Cl [Example 6, 1-(2,6-Dichlorophenylmethyl)-5-methoxy-2-methyl-1H-indole-3-acetamide] | 1300 ± 290 nM
23 | COc1ccc2c(c1)c(CC(N)=O)c(C)n2Cc1ccccn1 [Example 8, 5-Methoxy-2-methyl-1-[(2-pyridyl)methyl]-1H-indole-3-acetamide] | 21400 ± 8550 nM
24 | CCCc1c(CC(N)=O)c2cc(OC)ccc2n1Cc1ccccc1 [Example 10, 5-Methoxy-1-(phenylmethyl)-2-propyl-1H-indole-3-acetamide] | 38100 ± 2820 nM
25 | COc1ccc2c(c1)c(CC(N)=O)c(Cl)n2Cc1ccccc1 [Example 11, 2-Chloro-5-methoxy-1-(phenylmethyl)-1H-indole-3-acetamide] | 250 ± 30 nM
26 | Cc1c(CC(N)=O)c2cc(OCc3ccccc3)ccc2n1Cc1ccccc1 [Example 13, 5-Benzyloxy-2-methyl-1-(phenylmethyl)-1H-indole-3-acetamide] | 920 ± 240 nM
27 | CCCCCCCCCCn1c(C)c(CC(N)=O)c2cc(OC)ccc21 [Example 14, 1-Decyl-5-methoxy-2-methyl-1H-indole-3-acetamide] | 8480 ± 5250 nM
28 | Cc1c(CC(N)=O)c2cc(C(N)=O)ccc2n1Cc1ccccc1 [Example 15, 5-Aminocarbonyl-2-methyl-1-(phenylmethyl)-1H-indole-3-acetamide] | 1510 ± 580 nM
29 | Cc1c(CC(N)=O)c2cc(N)ccc2n1Cc1ccccc1 [Example 17, 5-Amino-2-methyl-1-(phenylmethyl)-1H-indole-3-acetamide] | 1610 ± 440 nM
30 | COC(=O)CCOc1ccc2c(c1)c(CC(N)=O)c(C)n2Cc1ccccc1 [Example 20, 3-[[3-(2-Amino-2-oxoethyl)-2-methyl-1-(phenylmethyl)-1H-indol-5-yl]oxy]-propanic acid methyl ester] | 1050 ± 110 nM
31 | COC(=O)CCN(CCC(=O)OC)c1ccc2c(c1)c(CC(N)=O)c(C)n2Cc1ccccc1 [Example 26, 3,3'-[[3-(2-Amino-2-oxoethyl)-2-methyl-1-(phenylmethyl)-1H-indol-5-yl]imino]bis[propanoic acid]dimethyl ester] | 2490 nM
32 | Cc1c(CC(N)=O)c2cc(NCCC(=O)NN)ccc2n1Cc1ccccc1 [Example 28, 3-[[3-(2-Amino-2-oxoethyl)-2-methyl-1-(phenylmethyl)-1H-indol-5-yl]amino]propanoic acid hydrazide] | 1550 ± 930 nM
33 | CCOC(=O)CCCOc1ccc2c(CC(N)=O)c(C)n(Cc3ccccc3)c2c1 [Example 31, 4-[[3-(2-Amino-2-oxoethyl)-2-methyl-1-(phenylmethyl)-1H-indol-6-yl]oxy]butanoic acid ethyl ester] | 450 ± 80 nM
34 | Cc1c(CC(N)=O)c2ccc(OCCCCC(=O)O)cc2n1Cc1ccccc1 [Example 34, 5-[[3-(2-Amino-2-oxoethyl)-2-methyl-1-(phenylmethyl)-1H-indol-6-yl]oxy]pentanoic acid] | 7960 ± 1220 nM
35 | CCOC(=O)CCCOc1cccc2c1c(CC(N)=O)c(C)n2Cc1ccccc1 [Example 37, 4-[[3-(2-Amino-2-oxoethyl)-2-methyl-1-(phenylmethyl)-1H-indol-4-yl]oxy]butanoic acid ethyl ester] | 9440 ± 1440 nM
36 | NC(=O)Cc1c(Br)n(Cc2ccccc2)c2ccc(OCCCC(=O)O)cc12 [Example 43, 4-[[3-(2-Amino-2-oxoethyl)-2-bromo-1-(phenylmethyl)-1H-indol-5-yl]oxy]butanoic acid] | 70 ± 30 nM
37 | CCOC(=O)CCCOc1ccc2c(c1)c(CC(N)=O)c(SC)n2Cc1ccccc1 [Example 45, 4-[[3-(2-Amino-2-oxoethyl)-2-(methylthio)-1-(phenylmethyl)-1H-indol-5-yl]oxy]butanoic acid ethyl ester] | 1550 ± 510 nM
38 | CCCCCCCCCCCCCCn1c(C)c(CC(N)=O)c2cc(OC)ccc21 [Example 48, 5-Methoxy-2-methyl-1-tetradecyl-1H-indole-3-acetamide] | > 100000 nM
39 | CCCCCCCCCCCCCCn1c(C)c(CC(N)=O)c2cc(OCCCC(=O)O)ccc21 [Example 49] | 470 ± 50 nM
40 | CCCCCCn1c(C)c(CC(N)=O)c2cc(OCCCC(=O)O)ccc21 [Example 50] | 2470 ± 1310 nM
41 | CCCCCCCCn1c(C)c(CC(N)=O)c2cc(OC)ccc21 [Example 51, 5-Methoxy-2-methyl-1-octyl-1H-indole-3-acetamide] | 8280 ± 4330 nM

Same assay, conditions: unit printed aM; pH 7.5, 40° C., 30 minutes, 405 nm; read-out: Inhibition of human secreted PLA2 IC50 ± mean deviation (3-5 tests)

Row | IC50 | Structure (SMILES)
42 | 380 ± 140 nM | CSc1c(CC(N)=O)c2cc(O)ccc2n1Cc1ccccc1 [Example 44, 5-Hydroxy-2-(methylthio)-1-(phenylmethyl)-1H-indole-3-acetamide]

Same assay, conditions: unit printed um; pH 7.5, 40° C., 30 minutes, 405 nm; read-out: Inhibition of human secreted PLA2 IC50 ± mean deviation (3-5 tests)

Row | IC50 | Structure (SMILES)
43 | 1230 ± 330 nM | COc1ccc2c(CC(N)=O)c(C)n(Cc3ccccc3)c2c1 [Example 29, 6-Methoxy-2-methyl-1-(phenylmethyl)-1H-indole-3-acetamide]
